Laboratory results reported in publication PMC6522510 (Nature Communications, 2019).
Read-outs that look alike come from different tables or passages of the source.

Key:
Experiment in all cases: Secondary dose-response HTS, Cell Titer Glo; call rule not given here
Assay type in all cases: cell-based, human
CHRF288-11 = details: secondary high-throughput screen, CHRF288-11; for EC50: Homo sapiens, HTS, read-out: average effective concentration, CHRF288-11
U937 = details: secondary high-throughput screen, U937; for EC50: Homo sapiens, U-937, read-out: average effective concentration, U937
M07e = details: secondary high-throughput screen; for EC50: Homo sapiens, M-07e, read-out: average effective concentration, M07e
CMS = details: for EC50: Homo sapiens, HTS, read-out: average effective concentration, CMS
CMK = details: CMK; for EC50: read-out: average effective concentration, CMK
MOLM-13 = details: secondary high-throughput screen, MOLM-13; for EC50: Homo sapiens, read-out: average effective concentration, MOLM-13
ML2 = details: secondary high-throughput screen, ML-2; for EC50: Homo sapiens, read-out: average effective concentration, ML-2
MV4-11 = details: secondary high-throughput screen, MV4-11; for EC50: Homo sapiens, read-out: average effective concentration, MV4-11
[1] = secondary high-throughput screen, CMS
[2] = secondary high-throughput screen
[3] = Homo sapiens, secondary high-throughput screen

Compound | average effective concentration, CHRF288-11 (CHRF288-11) | average effective concentration, U937 (U937) | average effective concentration, M07e (M07e; […]) | average effective concentration, CMS (CMS; [1]) | EC50 (CMK; [2]) [µM] | average effective concentration, MOLM-13 (MOLM-13) | average effective concentration, ML-2 (ML2) | average effective concentration, MV4-11 (MV4-11) | average effective concentration, M07e (M07e; M07e) | average effective concentration, CMK (CMK; [2]) | EC50 (CHRF288-11) [µM] | EC50 (U937) [µM] | EC50 (M07e; M07e) [µM] | EC50 (CMS; [1]) [µM] | EC50 (CMK; [3]) [µM] | EC50 (MOLM-13) [µM] | EC50 (ML2) [µM] | EC50 (MV4-11) [µM] | EC50 (CMS) [µM] | EC50 (CMK; Homo sapiens) [µM]
1-NA-PP1 [Compound 1-NA-PP1] | Inactive | Inactive | Inactive | Inactive | 2.2 | Inactive | Inactive | Inactive | – | – | – | – | – | – | – | – | – | – | – | –
CN(N=O)C(=O)N[C@H]1C(O)O[C@H](CO)[C@@H](O)[C@@H]1O (mixture of isomers) [STREPTOZOSIN] | Inactive | Inactive | – | Inactive | – | Inactive | Inactive | Inactive | Inactive | Inactive | – | – | – | – | – | – | – | – | – | –
O=C(O)c1ccnc(C(=O)O)c1 [2,4-PDAC] | Inactive | Inactive | – | Inactive | – | Inactive | Inactive | Inactive | Inactive | Inactive | – | – | – | – | – | – | – | – | – | –
CN(C)C/C=C/C(=O)Nc1cc2c(Nc3ccc(F)c(Cl)c3)ncnc2cc1O[C@H]1CCOC1 [AFATINIB] | – | – | – | – | – | – | – | – | – | – | 6.9 | 6.2 | > 10 | 8.6 | 3.6 | 5.6 | 7 | 5.4 | – | –
COCCCn1c(N)c(C(=O)NC2CCCC2)c2nc3ccccc3nc21 [CAY10591] | Inactive | Inactive | – | Inactive | – | Inactive | Inactive | Inactive | Inactive | Inactive | – | – | – | – | – | – | – | – | – | –
O=C(NC(NC(=S)Nc1ccc(F)c([N+](=O)[O-])c1)C(Cl)(Cl)Cl)C(c1ccccc1)c1ccccc1 (stereo not drawn) [CGK 733] | Inactive | Inactive | – | Inactive | – | Inactive | Inactive | Inactive | Inactive | Inactive | – | – | – | – | – | – | – | – | – | –
Cc1cc(C2CCCCC2)n(O)c(=O)c1 [CICLOPIROX] | – | – | – | – | – | – | – | – | – | – | 7.9 | 7.5 | 7.7 | 3.9 | 4.7 | 3.4 | 2.4 | 5.2 | – | –
CC1(COc2ccc3c(c2)ncn3-c2ccc3cccc(N4CCC(N)CC4)c3n2)COC1 [CRENOLANIB] | – | – | – | – | – | – | – | – | – | – | 0.77 | 5 | > 10 | – | – | 0.1 | 3.6 | 0.072 | 8.2 | 6.6
C[C@@H](Oc1cc(-c2cnn(C3CCNCC3)c2)cnc1N)c1c(Cl)ccc(F)c1Cl [CRIZOTINIB] | – | – | – | – | – | – | – | – | – | – | 7.8 | > 10 | > 10 | 8.3 | 4.2 | 3.9 | 4.8 | 3.9 | – | –
